Measured values published in patent US6903096B2, “Quinazoline derivatives as medicaments” (Scios, Inc., priority 1998, dated 2005).

Assays:
PKA = PKA (Homo sapiens, UniProt P17612); assay: Kinase specificity: PKA; type: biochemical; conditions: tested at 50 μM; approximate IC50(app)=A×i/(1−A)
Description: (§1) IC50 values were determined with curve-fitting plots available with common softeware packages. Approximate IC50 values were calculated using formula IC50(app)=A×i/(1−A) where A=fractional activity and i=total inhibitor concentration.
(§2) Compounds 5 and 7 were tested for their specificity for p38 by assessing their ability to inhibit other kinases. These compounds were tested at 50 μM and were soluble at 250 μM in 5% DMSO/95% water.

p38-γ = target: T1, p38-γ (Homo sapiens, UniProt P53778); assay: Kinase specificity: p38-γ; type: biochemical; conditions: tested at 50 μM; approximate IC50(app)=A×i/(1−A)
T1 sequence (P53778 1-367): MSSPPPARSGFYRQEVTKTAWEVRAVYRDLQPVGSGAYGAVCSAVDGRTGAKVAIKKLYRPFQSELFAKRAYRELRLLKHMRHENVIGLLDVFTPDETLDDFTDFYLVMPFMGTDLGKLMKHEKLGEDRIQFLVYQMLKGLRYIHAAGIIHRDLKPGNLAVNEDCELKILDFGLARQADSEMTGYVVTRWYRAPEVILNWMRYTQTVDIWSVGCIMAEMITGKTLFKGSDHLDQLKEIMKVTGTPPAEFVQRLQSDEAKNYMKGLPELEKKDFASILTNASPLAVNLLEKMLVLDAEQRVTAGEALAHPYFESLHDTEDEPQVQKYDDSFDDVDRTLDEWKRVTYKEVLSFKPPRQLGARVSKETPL
Description: as §1, §2

p38-β = p38-β (Homo sapiens, UniProt Q15759); assay: p38-β inhibition; type: biochemical; conditions: curve fitted
Chain of p38-β (Q15759 whole entry): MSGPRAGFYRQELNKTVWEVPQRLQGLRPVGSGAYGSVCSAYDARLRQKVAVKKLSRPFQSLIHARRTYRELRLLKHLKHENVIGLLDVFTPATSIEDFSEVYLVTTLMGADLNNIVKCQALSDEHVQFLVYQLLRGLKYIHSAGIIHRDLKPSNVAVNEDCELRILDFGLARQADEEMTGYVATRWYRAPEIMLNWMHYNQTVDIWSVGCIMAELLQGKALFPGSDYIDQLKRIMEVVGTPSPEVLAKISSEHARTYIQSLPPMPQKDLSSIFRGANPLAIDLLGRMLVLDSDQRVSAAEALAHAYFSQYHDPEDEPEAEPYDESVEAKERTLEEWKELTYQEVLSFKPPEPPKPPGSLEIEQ
Description: as §1

DNA-dep PK (PKD) = DNA-dep PK (PKD) (Homo sapiens, UniProt P78527); assay: Kinase specificity: DNA-dep PK; type: biochemical; conditions: tested at 50 μM; approximate IC50(app)=A×i/(1−A)
Description: as §1, §2

PKC = assay: Kinase specificity: PKC; type: biochemical; conditions: tested at 50 μM; approximate IC50(app)=A×i/(1−A)
Description: as §1, §2

JNK1 = JNK1 (Homo sapiens, UniProt P45983); assay: Kinase specificity: JNK1; type: biochemical; conditions: tested at 50 μM; approximate IC50(app)=A×i/(1−A)
Chain of JNK1 (P45983 whole entry, species assumed): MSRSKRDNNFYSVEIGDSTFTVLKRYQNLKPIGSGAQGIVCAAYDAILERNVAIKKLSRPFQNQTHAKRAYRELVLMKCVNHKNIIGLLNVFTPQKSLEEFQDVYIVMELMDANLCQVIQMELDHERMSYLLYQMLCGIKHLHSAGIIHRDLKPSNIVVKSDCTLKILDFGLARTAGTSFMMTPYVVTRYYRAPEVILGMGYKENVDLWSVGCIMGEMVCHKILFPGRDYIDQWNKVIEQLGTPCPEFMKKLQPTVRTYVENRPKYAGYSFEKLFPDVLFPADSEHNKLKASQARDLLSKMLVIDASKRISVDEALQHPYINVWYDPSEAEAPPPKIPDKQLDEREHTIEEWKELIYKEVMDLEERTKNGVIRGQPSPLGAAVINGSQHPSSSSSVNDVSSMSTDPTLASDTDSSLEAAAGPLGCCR
Description: as §1, §2

cck2 = assay: Kinase specificity: cck2; type: biochemical; conditions: tested at 50 μM; approximate IC50(app)=A×i/(1−A)
Description: as §1, §2

EGF-R = EGF-R (Homo sapiens, UniProt P00533); assay: Kinase specificity: EGF-R; type: biochemical; conditions: tested at 50 μM; approximate IC50(app)=A×i/(1−A)
Chain of EGF-R (P00533 25-1210, species assumed): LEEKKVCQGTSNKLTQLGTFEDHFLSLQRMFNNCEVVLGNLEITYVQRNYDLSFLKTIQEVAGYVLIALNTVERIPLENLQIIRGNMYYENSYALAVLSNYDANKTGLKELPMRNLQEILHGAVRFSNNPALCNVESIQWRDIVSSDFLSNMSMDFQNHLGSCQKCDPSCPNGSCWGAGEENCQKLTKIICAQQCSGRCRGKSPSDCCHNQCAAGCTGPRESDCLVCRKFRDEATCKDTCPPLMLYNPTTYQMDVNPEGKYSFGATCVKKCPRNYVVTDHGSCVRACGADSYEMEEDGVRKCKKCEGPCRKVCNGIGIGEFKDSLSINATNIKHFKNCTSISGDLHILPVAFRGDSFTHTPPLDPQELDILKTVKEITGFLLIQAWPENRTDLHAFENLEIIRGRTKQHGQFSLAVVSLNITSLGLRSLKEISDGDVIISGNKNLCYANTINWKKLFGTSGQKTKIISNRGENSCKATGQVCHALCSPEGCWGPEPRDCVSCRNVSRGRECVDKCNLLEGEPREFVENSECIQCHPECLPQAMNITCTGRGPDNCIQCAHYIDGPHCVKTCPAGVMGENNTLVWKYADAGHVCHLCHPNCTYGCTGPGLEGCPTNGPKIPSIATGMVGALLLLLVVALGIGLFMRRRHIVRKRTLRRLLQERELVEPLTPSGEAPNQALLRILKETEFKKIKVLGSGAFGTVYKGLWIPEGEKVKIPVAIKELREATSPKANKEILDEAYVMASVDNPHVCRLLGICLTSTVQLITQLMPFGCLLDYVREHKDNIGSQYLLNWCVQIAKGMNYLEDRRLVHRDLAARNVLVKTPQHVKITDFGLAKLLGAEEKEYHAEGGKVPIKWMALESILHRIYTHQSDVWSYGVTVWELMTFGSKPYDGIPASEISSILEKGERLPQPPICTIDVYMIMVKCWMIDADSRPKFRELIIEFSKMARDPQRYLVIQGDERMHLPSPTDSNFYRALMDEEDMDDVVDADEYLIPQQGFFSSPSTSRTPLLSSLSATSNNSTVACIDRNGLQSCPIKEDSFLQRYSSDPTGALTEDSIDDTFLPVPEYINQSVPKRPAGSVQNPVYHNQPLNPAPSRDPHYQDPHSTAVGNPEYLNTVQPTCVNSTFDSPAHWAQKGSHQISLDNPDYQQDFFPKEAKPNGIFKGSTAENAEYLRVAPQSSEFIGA
Description: as §1, §2

[1] = Solubility in 5% DMSO/95% water; type: physicochemical; conditions: aqueous with cosolvent or surfactant or cyclodextrin, read-out: soluble at
Description: as §2

Row | IC50 (PKA) | IC50 (p38-γ) | IC50 (p38-β) | IC50 (DNA-dep PK (PKD)) | IC50 (PKC) | IC50 (JNK1) | IC50 (cck2) | IC50 (EGF-R) | solubility [1] | Compound
1 | > 250 µM | 227 µM | 0.928 µM | 120 µM | > 100 µM | 167 µM | 245 µM | 4.2 µM | ≥ 250 µM | Fc1ccccc1-c1nc(Nc2ccncc2)c2ccccc2n1 [Compound 5, 2-(2-fluorophenyl)-4-(4-pyridylamino)-quinazoline]
2 | 310 µM | > 300 µM | 3.65 µM | 240 µM | > 500 µM | > 300 µM | > 500 µM | 34 µM | ≥ 250 µM | c1ccc(-c2nc(Nc3ccncc3)c3ccccc3n2)cc1 [Compound 7, 2-phenyl-4-(4-pyridylamino)-quinazoline]
